Measured values published in PubChem BioAssay AID256 (DTP/NCI, 2004).
Several values for one entry are separate records, joined by “and”; a condition that tells them apart may be missing. Identical values can stand only once. Toxic doses and inconclusive results are not listed. The calls were made as follows: active = survival T/C of 150% or more; inactive = T/C below 125% in these data.

Tested on: CD2F1 mice, L1210 leukemia ip, survival T/C
Test: NCI In Vivo Anticancer Drug Screen. Data for tumor model L1210 Leukemia (intraperitoneal) in CD2F1 (CDF1) mice
Conditions: higher = longer survival
How it was run: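 Each value reflects a quotient of treated over vehicle control outcomes in mice with a transplanted tumor.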

[1] = endpoint: mean survival time, dose: 100.0 mg/kg/injection, schedule: Q04DX003 (ip), vehicle: saline with Tween-80
[2] = endpoint: mean survival time, dose: 200.0 mg/kg/injection, schedule: Q04DX003 (ip), vehicle: saline with Tween-80
[3] = endpoint: mean survival time, dose: 100.0 mg/kg/injection, schedule: Q01DX001 (ip), vehicle: saline with Tween-80
[4] = endpoint: mean survival time, dose: 200.0 mg/kg/injection, schedule: Q01DX001 (ip), vehicle: saline with Tween-80
[5] = endpoint: mean survival time, dose: 400.0 mg/kg/injection, schedule: Q01DX001 (ip), vehicle: saline with Tween-80
[6] = endpoint: mean survival time, dose: 100.0 mg/kg/injection, schedule: Q01DX009 (ip), vehicle: saline with Tween-80
[7] = endpoint: mean survival time, dose: 200.0 mg/kg/injection, schedule: Q01DX009 (ip), vehicle: saline with Tween-80
[8] = endpoint: mean survival time, dose: 400.0 mg/kg/injection, schedule: Q01DX009 (ip), vehicle: saline with Tween-80
[9] = endpoint: mean survival time, dose: 400.0 mg/kg/injection, schedule: Q04DX003 (ip), vehicle: saline with Tween-80
[10] = endpoint: mean survival time, dose: 50.0 mg/kg/injection, schedule: Q04DX002 (ip), vehicle: saline with Tween-80
[11] = endpoint: mean survival time, dose: 100.0 mg/kg/injection, schedule: Q04DX002 (ip), vehicle: saline with Tween-80
[12] = endpoint: mean survival time, dose: 200.0 mg/kg/injection, schedule: Q04DX002 (ip), vehicle: saline with Tween-80

Measured: T/C

O=S(=O)(c1ccc(NC(=S)N/N=C/c2ccccc2O)cc1)N1CCCCC1
inactive: endpoint: mean survival time, dose: 12.5 mg/kg/injection, schedule: Q01DX009 (ip), vehicle: olive oil, sesame oil, peanut oil 98 % of control | endpoint: mean survival time, dose: 25.0 mg/kg/injection, schedule: Q01DX009 (ip), vehicle: olive oil, sesame oil, peanut oil 94 % of control | endpoint: mean survival time, dose: 50.0 mg/kg/injection, schedule: Q01DX009 (ip), vehicle: olive oil, sesame oil, peanut oil 102 % of control | endpoint: mean survival time, dose: 100.0 mg/kg/injection, schedule: Q01DX009 (ip), vehicle: olive oil, sesame oil, peanut oil 104 % of control | endpoint: mean survival time, dose: 200.0 mg/kg/injection, schedule: Q01DX009 (ip), vehicle: olive oil, sesame oil, peanut oil 94 % of control | endpoint: mean survival time, dose: 400.0 mg/kg/injection, schedule: Q01DX009 (ip), vehicle: olive oil, sesame oil, peanut oil 96 % of control

O=C1C=C(O)c2cc(Br)ccc2C1=O.[Ag]
inactive: endpoint: mean survival time, dose: 25.0 mg/kg/injection, schedule: Q04DX002 (ip), vehicle: saline 106 % of control | endpoint: mean survival time, dose: 50.0 mg/kg/injection, schedule: Q04DX002 (ip), vehicle: saline 113 % of control | endpoint: mean survival time, dose: 100.0 mg/kg/injection, schedule: Q04DX002 (ip), vehicle: saline 97 % of control

CN(CC[NH-])CC[NH-].[I][Pt]
inactive: endpoint: mean survival time, dose: 12.5 mg/kg/injection, schedule: Q04DX003 (ip), vehicle: saline with Tween-80 100 % of control | endpoint: mean survival time, dose: 25.0 mg/kg/injection, schedule: Q04DX003 (ip), vehicle: saline with Tween-80 94 % of control | endpoint: mean survival time, dose: 50.0 mg/kg/injection, schedule: Q04DX003 (ip), vehicle: saline with Tween-80 98 % of control | [1] 100 % of control | [2] 94 % of control

CC(C)C1=CC2=CCC3C(C)(CN)CCCC3(C)C2CC1CCN (configuration not stated)
inactive: endpoint: mean survival time, dose: 1.25 mg/kg/injection, schedule: Q01DX009 (ip), vehicle: saline with Tween-80 101 % of control | endpoint: mean survival time, dose: 2.5 mg/kg/injection, schedule: Q01DX009 (ip), vehicle: saline with Tween-80 97 % of control | endpoint: mean survival time, dose: 5.0 mg/kg/injection, schedule: Q01DX009 (ip), vehicle: saline with Tween-80 94 % of control

CC1(C)C(=O)OC(=O)C(C)(Br)C1(C)C (configuration not stated)
inactive: [3] 104 % of control | [4] 96 % of control | [5] 101 % of control

O=[N+]([O-])c1ccc2nc(CC(O)(C(F)(F)F)C(F)(F)F)ccc2c1
inactive: [6] 112 % of control | [1] 102 % of control | [7] 110 % of control | [2] 97 % of control | [8] 101 % of control | [9] 113 % of control

Cc1cc(N(CCOS(C)(=O)=O)CCOS(C)(=O)=O)ccc1N=Nc1ccccc1
inactive: endpoint: mean survival time, dose: 3.12 mg/kg/injection, schedule: Q01DX009 (ip), vehicle: Klucel (hydroxypropylcellulose) (HPC) 106 % of control | endpoint: mean survival time, dose: 6.25 mg/kg/injection, schedule: Q01DX009 (ip), vehicle: Klucel (hydroxypropylcellulose) (HPC) 113 % of control | endpoint: mean survival time, dose: 12.5 mg/kg/injection, schedule: Q01DX009 (ip), vehicle: Klucel (hydroxypropylcellulose) (HPC) 114 % of control and 124 % of control | endpoint: mean survival time, dose: 25.0 mg/kg/injection, schedule: Q01DX009 (ip), vehicle: Klucel (hydroxypropylcellulose) (HPC) 101 % of control | endpoint: mean survival time, dose: 50.0 mg/kg/injection, schedule: Q01DX009 (ip), vehicle: Klucel (hydroxypropylcellulose) (HPC) 95 % of control

Cc1ccc(S(=O)(=O)OCC2OC3(COS(=O)(=O)c4ccc(C)cc4)OC(C)(C)OC3C2O)cc1 (configuration not stated)
inactive: [1] 93 % of control | [2] 101 % of control

C1=CC2C3C=CC(CC3)C2CC1 (configuration not stated)
inactive: [6] 103 % of control | [7] 98 % of control

CN(C)/N=C\c1ccc([N+](C)(C)C)cc1
inactive: endpoint: mean survival time, dose: 12.5 mg/kg/injection, schedule: Q04DX003 (ip), vehicle: Klucel (hydroxypropylcellulose) (HPC) 103 % of control | endpoint: mean survival time, dose: 25.0 mg/kg/injection, schedule: Q04DX003 (ip), vehicle: Klucel (hydroxypropylcellulose) (HPC) 109 % of control | endpoint: mean survival time, dose: 50.0 mg/kg/injection, schedule: Q04DX003 (ip), vehicle: Klucel (hydroxypropylcellulose) (HPC) 106 % of control

Cc1oc([N+](=O)[O-])c(C)c1C(=O)O
inactive: [10] 101 % of control | [11] 97 % of control | [12] 104 % of control

CC1=C(c2ccccc2)C(c2ccccc2)c2ccccc21 (configuration not stated)
inactive: [3] 94 % of control | [4] 93 % of control | [5] 92 % of control

O=C(COc1ccccc1)N/N=C/c1cccc([N+](=O)[O-])c1
inactive: [7] 89 % of control | [8] 94 % of control

CCc1ccc(N=Nc2ccc(N(C)C)cc2)cc1CC
inactive: endpoint: mean survival time, dose: 75.0 mg/kg/injection, schedule: Q04DX002 (ip), vehicle: saline with Tween-80 92 % of control | endpoint: mean survival time, dose: 150.0 mg/kg/injection, schedule: Q04DX002 (ip), vehicle: saline with Tween-80 92 % of control | endpoint: mean survival time, dose: 300.0 mg/kg/injection, schedule: Q04DX002 (ip), vehicle: saline with Tween-80 88 % of control

O=C(O)c1ccc(OCCOc2ccccc2)cc1
inactive: endpoint: mean survival time, dose: 66.0 mg/kg/injection, schedule: Q04DX003 (ip), vehicle: saline sonified 101 % of control | endpoint: mean survival time, dose: 100.0 mg/kg/injection, schedule: Q04DX003 (ip), vehicle: saline sonified 96 % of control | endpoint: mean survival time, dose: 150.0 mg/kg/injection, schedule: Q04DX003 (ip), vehicle: saline sonified 107 % of control

CC(=O)c1ccc(NCN2C(=O)c3ccccc3C2=O)cc1
inactive: [6] 96 % of control | [7] 98 % of control | [8] 98 % of control

c1ccc2sc(SCCSc3nc4ccccc4s3)nc2c1
inactive: endpoint: mean survival time, dose: 25.0 mg/kg/injection, schedule: Q04DX002 (ip), vehicle: saline with Tween-80 107 % of control | [11] 88 % of control | [12] 87 % of control | endpoint: mean survival time, dose: 400.0 mg/kg/injection, schedule: Q04DX002 (ip), vehicle: saline with Tween-80 87 % of control

O=C1OCC(Cl)=C1Cl
inactive: endpoint: mean survival time, dose: 6.25 mg/kg/injection, schedule: Q01DX009 (ip), vehicle: saline with Tween-80 96 % of control | endpoint: mean survival time, dose: 12.5 mg/kg/injection, schedule: Q01DX009 (ip), vehicle: saline with Tween-80 94 % of control | endpoint: mean survival time, dose: 25.0 mg/kg/injection, schedule: Q01DX009 (ip), vehicle: saline with Tween-80 98 % of control

NC(CSC(c1ccccc1)(c1ccccc1)c1cccs1)C(=O)O (configuration not stated)
inactive: endpoint: mean survival time, dose: 25.0 mg/kg/injection, schedule: Q01DX009 (ip), vehicle: saline 92 % of control | endpoint: mean survival time, dose: 100.0 mg/kg/injection, schedule: Q01DX009 (ip), vehicle: saline 86 % of control | endpoint: mean survival time, dose: 200.0 mg/kg/injection, schedule: Q01DX009 (ip), vehicle: saline 95 % of control

CN(C)C(C)(C)P(=O)(O)O
inactive: endpoint: mean survival time, dose: 100.0 mg/kg/injection, schedule: Q04DX003 (ip), vehicle: saline 98 % of control | endpoint: mean survival time, dose: 200.0 mg/kg/injection, schedule: Q04DX003 (ip), vehicle: saline 96 % of control | endpoint: mean survival time, dose: 400.0 mg/kg/injection, schedule: Q04DX003 (ip), vehicle: saline 96 % of control

CC1CC(C)(C)N=C(CCCCCCl)O1 (configuration not stated)
inactive: [10] 101 % of control | [3] 103 % of control | [11] 108 % of control | [4] 105 % of control | [12] 112 % of control

Cn1/c2cc/c1=C(\c1ccc(S(=O)(=O)O)cc1)c1ccc([n-]1)/C(c1ccc(S(=O)(=O)O)cc1)=c1/cc/c([nH]1)=C(\c1ccc(S(=O)(=O)O)cc1)c1ccc([n-]1)/C=2c1ccc(S(=O)(=O)O)cc1.O.O=S(=O)(O)C(F)(F)F.[Cu+2]
inactive: endpoint: median survival time, dose: 6.25 mg/kg/injection, schedule: Q01DX009 (ip), vehicle: saline 101 % of control | endpoint: median survival time, dose: 12.5 mg/kg/injection, schedule: Q01DX009 (ip), vehicle: saline 104 % of control | endpoint: median survival time, dose: 25.0 mg/kg/injection, schedule: Q01DX009 (ip), vehicle: saline 103 % of control | endpoint: median survival time, dose: 50.0 mg/kg/injection, schedule: Q01DX009 (ip), vehicle: saline 112 % of control | endpoint: median survival time, dose: 100.0 mg/kg/injection, schedule: Q01DX009 (ip), vehicle: saline 103 % of control

Cc1cc(C)c(C(=O)CN2CCOCC2)c(C)c1
inactive: [1] 98 % of control | [2] 101 % of control | [9] 95 % of control

Nc1cccc2cn[nH]c12
inactive: endpoint: mean survival time, dose: 100.0 mg/kg/injection, schedule: Q04DX003 (ip), vehicle: other 98 % of control | endpoint: mean survival time, dose: 200.0 mg/kg/injection, schedule: Q04DX003 (ip), vehicle: other 96 % of control | endpoint: mean survival time, dose: 400.0 mg/kg/injection, schedule: Q04DX003 (ip), vehicle: other 101 % of control

c1coc(NC2CCCCC2)n1
inactive: [3] 102 % of control | [4] 102 % of control | [5] 102 % of control

CN(C)c1ccc(/C=C/c2cc[n+](C)cc2)cc1
inactive: endpoint: mean survival time, dose: 4.0 mg/kg/injection, schedule: Q01DX009 (ip), vehicle: saline 97 % of control | endpoint: mean survival time, dose: 8.0 mg/kg/injection, schedule: Q01DX009 (ip), vehicle: saline 94 % of control

Cc1nc2nc(N)[nH]c(=O)c2nc1C
inactive: [3] 95 % of control | [4] 98 % of control | [5] 90 % of control
